Results published in publication PMC4397719 (Pharmacogenomics and Personalized Medicine, 2015).

How the values were obtained:
CD-3e+ T-cells = assay: Flow cytometry viability; format: cell-based, mouse; conditions: 4 hours; for sensitivity of T-cells (viability) compared to other cell populations: 15 nM to 100 μM
[1] = test system: normal immune cells (splenocyte immune cell subpopulations); conditions: 15 nM to 100 μM, 4 hours

Row | SMILES | sensitivity of T-cells (viability) compared to other cell populations (CD-3e+ T-cells) | toxicity to normal immune cells (viability) [1] | IC50 (viability) (CD-3e+ T-cells; T-cells, highest concentration of 100 μM, 36 strains)
1 | Cn1c(=O)n(-c2ccc(C(C)(C)C#N)cc2)c2c3cc(-c4cnc5ccccc5c4)ccc3ncc21 [BEZ-235] | less sensitive and less variable | less toxic to normal immune cells than the anthracycline agents | –
2 | COc1cccc2c1C(=O)c1c(O)c3c(c(O)c1C2=O)C[C@@](O)(C(=O)CO)C[C@@H]3O[C@H]1C[C@H](N)[C@H](O)[C@H](C)O1 [doxorubicin] | least sensitive | – | few strains reaching the IC50 at the highest concentration of 100 μM
3 | CC(=O)[C@]1(O)Cc2c(O)c3c(c(O)c2[C@@H](O[C@H]2C[C@H](N)[C@H](O)[C@H](C)O2)C1)C(=O)c1ccccc1C3=O [idarubicin] | less sensitive than B-cells | – | –
4 | Cn1cnc2c(F)c(Nc3ccc(Br)cc3Cl)c(C(=O)NOCCO)cc21 [selumetinib] | less sensitive and less variable | less toxic to normal immune cells than the anthracycline agents | –
